{
  "source": "the supplement of paper PMC10307832",
  "assay_in_all_cases": "relative viability (nuclei count vs DMSO), 5 days (fraction); higher = more cells survive",
  "key": {"CAL-12T": {"tested_on": "CAL-12T", "details": "first compound 0.1 µM", "in_short": "(§1)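 Nuclei were stained with Hoechst during a one-step fixation (final 0.05% Triton X-100, 1% formaldehyde, 1 ug/ml Hoechst) carried out 5 days after dosing, then counted on 4× images. The cells, lung cancer lines in 1536-well plates, had been dosed by pin tool the day after seeding with one drug alone or a fixed anchor-drug dose plus five library-drug doses (not always all listed) in √10 steps. Relative viability is the nuclei count in treated wells divided by that in vehicle wells, and each value is the median of duplicate plates.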"}, "SW 1573": {"tested_on": "SW 1573", "in_short": "as §1"}, "HCC-15": {"tested_on": "HCC-15", "in_short": "as §1"}, "HCC-44": {"tested_on": "HCC-44", "in_short": "as §1"}, "NCI-H838": {"tested_on": "NCI-H838", "in_short": "as §1"}, "NCI-H1395": {"tested_on": "NCI-H1395", "in_short": "as §1"}, "LCLC-97TM1": {"tested_on": "LCLC-97TM1", "in_short": "as §1"}, "UMC-11": {"tested_on": "UMC-11", "in_short": "as §1"}, "NCI-H2347": {"tested_on": "NCI-H2347", "in_short": "as §1"}, "NCI-H2023": {"tested_on": "NCI-H2023", "in_short": "as §1"}, "NCI-H1915": {"tested_on": "NCI-H1915", "in_short": "as §1"}, "EPLC-272H": {"tested_on": "EPLC-272H", "in_short": "as §1"}},
  "data": [
    {"smiles": "Cc1cn(-c2cc(NC(=O)c3ccc(C)c(Nc4nccc(-c5cccnc5)n4)c3)cc(C(F)(F)F)c2)cn1", "note": "[Nilotinib] + CC(=O)Nc1cccc(-n2c(=O)n(C3CC3)c(=O)c3c(Nc4ccc(I)cc4F)n(C)c(=O)c(C)c32)c1 [Trametinib] (partner 0.02 µM)", "values": [
      {"measurement": "relative viability", "setting": "CAL-12T", "value": 0.249},
      {"measurement": "relative viability", "setting": "SW 1573; first compound 0.001 µM", "value": 0.487},
      {"measurement": "relative viability", "setting": "SW 1573; first compound 0.003162 µM", "value": 0.72},
      {"measurement": "relative viability", "setting": "SW 1573; first compound 0.01 µM", "value": 0.456},
      {"measurement": "relative viability", "setting": "SW 1573; first compound 0.1 µM", "value": 0.314},
      {"measurement": "relative viability", "setting": "HCC-15; first compound 0.001 µM", "value": 0.375},
      {"measurement": "relative viability", "setting": "HCC-15; first compound 0.003162 µM", "value": 0.357},
      {"measurement": "relative viability", "setting": "HCC-15; first compound 0.01 µM", "value": 0.369},
      {"measurement": "relative viability", "setting": "HCC-15; first compound 0.03162 µM", "value": 0.284},
      {"measurement": "relative viability", "setting": "HCC-15; first compound 0.1 µM", "value": 0.233},
      {"measurement": "relative viability", "setting": "HCC-44; first compound 0.001 µM", "value": 0.951},
      {"measurement": "relative viability", "setting": "HCC-44; first compound 0.003162 µM", "value": 1.03},
      {"measurement": "relative viability", "setting": "HCC-44; first compound 0.01 µM", "value": 1.21},
      {"measurement": "relative viability", "setting": "HCC-44; first compound 0.1 µM", "value": 0.774},
      {"measurement": "relative viability", "setting": "NCI-H838; first compound 0.001 µM", "value": 0.462},
      {"measurement": "relative viability", "setting": "NCI-H838; first compound 0.003162 µM", "value": 0.617},
      {"measurement": "relative viability", "setting": "NCI-H838; first compound 0.01 µM", "value": 0.567},
      {"measurement": "relative viability", "setting": "NCI-H838; first compound 0.03162 µM", "value": 0.339},
      {"measurement": "relative viability", "setting": "NCI-H838; first compound 0.1 µM", "value": 0.494},
      {"measurement": "relative viability", "setting": "NCI-H1395; first compound 0.001 µM", "value": 0.988},
      {"measurement": "relative viability", "setting": "NCI-H1395; first compound 0.01 µM", "value": 1.19},
      {"measurement": "relative viability", "setting": "NCI-H1395; first compound 0.03162 µM", "value": 0.96},
      {"measurement": "relative viability", "setting": "NCI-H1395; first compound 0.1 µM", "value": 0.9},
      {"measurement": "relative viability", "setting": "LCLC-97TM1; first compound 0.001 µM", "value": 0.164},
      {"measurement": "relative viability", "setting": "LCLC-97TM1; first compound 0.003162 µM", "value": 0.18},
      {"measurement": "relative viability", "setting": "LCLC-97TM1; first compound 0.01 µM", "value": 0.152},
      {"measurement": "relative viability", "setting": "LCLC-97TM1; first compound 0.03162 µM", "value": 0.114},
      {"measurement": "relative viability", "setting": "LCLC-97TM1; first compound 0.1 µM", "value": 0.227},
      {"measurement": "relative viability", "setting": "UMC-11; first compound 0.001 µM", "value": 0.635},
      {"measurement": "relative viability", "setting": "UMC-11; first compound 0.003162 µM", "value": 0.801},
      {"measurement": "relative viability", "setting": "UMC-11; first compound 0.01 µM", "value": 0.742},
      {"measurement": "relative viability", "setting": "UMC-11; first compound 0.03162 µM", "value": 0.446},
      {"measurement": "relative viability", "setting": "UMC-11; first compound 0.1 µM", "value": 0.317},
      {"measurement": "relative viability", "setting": "NCI-H2347; first compound 0.001 µM", "value": 0.267},
      {"measurement": "relative viability", "setting": "NCI-H2347; first compound 0.003162 µM", "value": 0.23},
      {"measurement": "relative viability", "setting": "NCI-H2347; first compound 0.01 µM", "value": 0.234},
      {"measurement": "relative viability", "setting": "NCI-H2347; first compound 0.03162 µM", "value": 0.268},
      {"measurement": "relative viability", "setting": "NCI-H2347; first compound 0.1 µM", "value": 0.271},
      {"measurement": "relative viability", "setting": "NCI-H2023; first compound 0.001 µM", "value": 0.485},
      {"measurement": "relative viability", "setting": "NCI-H2023; first compound 0.003162 µM", "value": 0.619},
      {"measurement": "relative viability", "setting": "NCI-H2023; first compound 0.01 µM", "value": 0.508},
      {"measurement": "relative viability", "setting": "NCI-H2023; first compound 0.03162 µM", "value": 0.329},
      {"measurement": "relative viability", "setting": "NCI-H2023; first compound 0.1 µM", "value": 0.433},
      {"measurement": "relative viability", "setting": "NCI-H1915; first compound 0.001 µM", "value": 0.237},
      {"measurement": "relative viability", "setting": "NCI-H1915; first compound 0.003162 µM", "value": 0.283},
      {"measurement": "relative viability", "setting": "NCI-H1915; first compound 0.01 µM", "value": 0.224},
      {"measurement": "relative viability", "setting": "NCI-H1915; first compound 0.03162 µM", "value": 0.151},
      {"measurement": "relative viability", "setting": "NCI-H1915; first compound 0.1 µM", "value": 0.164},
      {"measurement": "relative viability", "setting": "EPLC-272H; first compound 0.001 µM", "value": 0.289},
      {"measurement": "relative viability", "setting": "EPLC-272H; first compound 0.003162 µM", "value": 0.233},
      {"measurement": "relative viability", "setting": "EPLC-272H; first compound 0.01 µM", "value": 0.34},
      {"measurement": "relative viability", "setting": "EPLC-272H; first compound 0.03162 µM", "value": 0.273},
      {"measurement": "relative viability", "setting": "EPLC-272H; first compound 0.1 µM", "value": 0.225}
    ]}
  ]
}
